The numbers were not newly measured in publication PMC6318333, “A chemical biology toolbox to study protein methyltransferases and epigenetic signaling” (Nature Communications, 2019), which cites them from elsewhere.

For orientation: IC50 means the concentration needed to halve the response being measured.

This data set concerns the target T1, SMYD3 (Homo sapiens, UniProt Q9H7B4).
T1 sequence (Q9H7B4 1-428): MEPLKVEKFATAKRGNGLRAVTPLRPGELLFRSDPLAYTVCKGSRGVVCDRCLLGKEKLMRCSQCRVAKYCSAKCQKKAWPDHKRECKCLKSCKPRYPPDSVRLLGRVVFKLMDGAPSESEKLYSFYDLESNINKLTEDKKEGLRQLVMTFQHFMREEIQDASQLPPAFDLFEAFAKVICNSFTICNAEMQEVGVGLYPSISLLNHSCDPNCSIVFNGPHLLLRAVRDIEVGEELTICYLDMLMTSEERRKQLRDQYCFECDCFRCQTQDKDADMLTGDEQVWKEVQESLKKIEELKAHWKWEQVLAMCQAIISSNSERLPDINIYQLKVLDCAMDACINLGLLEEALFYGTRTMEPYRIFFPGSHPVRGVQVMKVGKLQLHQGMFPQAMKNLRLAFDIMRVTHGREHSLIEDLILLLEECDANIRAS
In words: biochemical methyltransferase assay with recombinant protein. Conditions: read-out: In vitro IC50 or Kd.

As for BAY-6035, the IC50 was 88 nM.
